Measured values from patent publication US4396614A, “Novel steroids” (Uclaf; Roussel, priority 1980, dated 1983).

Experiments:
[1] = biological target: T1, androgen hormonal receptor of prostate cytosol (Rattus norvegicus, UniProt P15207); experiment: Androgenic activity: hormonal receptor method of Raynaud, displacement of tritiated 17α-methyl-Δ^4,9,11-estratriene-17β-ol-3-one (Product R) in prostate cytosol; format: binding; conditions: prostate cytosol of castrated male rats, incubated at 0° C. for 2 hours
T1 construct: The homogenate was centrifuged at 105,000 g per hour and the surnageant or cytosol was adjusted to a dilution of 1/5; from tissue; host or cells: prostate cytosol of male rats castrated 24 hours earlier
T1 sequence (P15207 1-902): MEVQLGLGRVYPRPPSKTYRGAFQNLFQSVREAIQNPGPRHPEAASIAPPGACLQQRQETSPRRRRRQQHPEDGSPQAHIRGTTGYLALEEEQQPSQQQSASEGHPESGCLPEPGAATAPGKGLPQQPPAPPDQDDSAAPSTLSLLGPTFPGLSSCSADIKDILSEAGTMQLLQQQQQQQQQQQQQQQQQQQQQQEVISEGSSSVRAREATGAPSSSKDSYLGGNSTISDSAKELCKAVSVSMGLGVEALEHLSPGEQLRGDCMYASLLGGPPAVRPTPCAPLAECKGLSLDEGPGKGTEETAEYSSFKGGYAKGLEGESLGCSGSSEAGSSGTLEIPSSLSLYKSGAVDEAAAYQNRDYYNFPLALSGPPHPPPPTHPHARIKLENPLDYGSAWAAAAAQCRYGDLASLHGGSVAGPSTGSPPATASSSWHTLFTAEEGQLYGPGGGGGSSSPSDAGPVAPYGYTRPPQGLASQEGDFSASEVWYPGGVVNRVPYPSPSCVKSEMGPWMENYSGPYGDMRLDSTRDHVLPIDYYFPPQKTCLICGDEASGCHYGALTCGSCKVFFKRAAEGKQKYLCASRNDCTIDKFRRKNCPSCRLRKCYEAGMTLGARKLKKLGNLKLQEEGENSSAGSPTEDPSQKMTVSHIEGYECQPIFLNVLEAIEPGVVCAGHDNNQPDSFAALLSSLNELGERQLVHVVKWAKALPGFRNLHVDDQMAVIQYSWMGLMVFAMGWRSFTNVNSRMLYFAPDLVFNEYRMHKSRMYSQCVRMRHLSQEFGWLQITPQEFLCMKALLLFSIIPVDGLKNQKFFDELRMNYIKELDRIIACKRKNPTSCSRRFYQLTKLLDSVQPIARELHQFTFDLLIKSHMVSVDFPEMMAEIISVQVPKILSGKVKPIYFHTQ
Procedure: The latter was homogenized in a buffered solution of 10 mm of tromethamine, 0.25 M of saccharose and a pH of 7.4 with hydrochloric acid. The homogenate was centrifuged at 105,000 g per hour and the surnageant or cytosol was adjusted to a dilution of 1/5 (weight/volume). The resulting solution was incubated at 0° C. for 2 hours in tubes with the same volume of cytosol with a fixed concentration of tritiated 17α-methyl-Δ^4,9,11 - estratriene-17β-ol-3-one (designated as tritiated Product R) in the presence or not of an increasing concentration of radioinactive 17α-methyl-Δ^4,9,11 -estratriene-17β-ol-3-one (designated as cold product R) or the test product. […] The plots were the curves representing the percentage of tritiated product R as a function of the log of the concentration of cold product R or the test product of the I50 straight line parallel to the axis of the abcisses and ordinates.
B/T=(B/T Max.+B/T Min.)/2
B/T max. is the percentage of tied tritiated product R when the product is not added and B/T min, is the percentage of tied tritiated product R when the maximum amount of cold product R is added.

[2] = tested on: aldosterone monoacetate; experiment: Antialdosterone activity: diuresis test in surrenalectomized rats (Kagawa/Marcus); format: in vivo, rat; conditions: surrenalectomized male Sprague Dawley rats, 4 hours urine collection
Procedure: The study was effected by a test inspired by Kagawa [P.S.E.B.M., Vol. 99 (1958), p. 705] and Marcus [Endocrinology, Vol. 50 (1952), p. 286] in which male rats of the Sprague Dawley SPF 1FFA CREDO strain weighing 180 g were surrenalectomized 7 days before diuresis while anestesized with Imalgene (Ketamine) intraperitoneally at a dose of 100 mg/kg. After the operation and from the night before the start of the test, the rats received physiological serum as drinking water and the animals were held without food or drink for 17 hours before diuresis and the physiological serum was replaced by water containing 5% glucose. The test products were orally administered before placing them in a cage and at the moment of diuresis, the animals received intraperitoneally a hydrosaline surcharge of 5 ml per rat of 9.permill. physiological serum and subcutaneously 1 μg/kg of aldosterone monoacetate in 2.5% alcoholic solution.
The rats were placed in pairs in a diuresis cage without food or drink for 4 hours and at this time, a forced emission was induced by pressure against the bladder and the volume of recovered urine was measured. After careful rinsing of the cages and the glass, the urine volume was adjusted to 50 ml and this solution was treated to determine the amount of potassium and sodium in the urine by flame photometry in an autoanalyszer. […] 125-132]. […]

SMILES: CCC[C@@H]1CC2=CC(=O)C=C[C@]2(C)[C@H]2CC[C@@]3(C)[C@@H](CC[C@@]3(O)CCC(=O)O)[C@H]12 [Example 10, Potassium 7α-propyl-17α-Δ^1,4-pregnadiene-17β-ol-3-one-21-carboxylate]
- ARL (relative affinity = 100×(CT/CX)) [1]: 0.02
- percentage of inhibition of the activity of 1 μg/kg of aldosterone monoacetate (log of ratio sodium concentration/potassium concentration in urine) ([2]; 0.4 mg/kg orally): 30%
- percentage of inhibition of the activity of 1 μg/kg of aldosterone monoacetate (log of ratio sodium concentration/potassium concentration in urine) ([2]; 2 mg/kg orally): 80%
